Measured values reported in the OligoGym collection.
Values joined by “and” are separate entries in the source; they are usually repeats but may differ in a detail not shown here. Equal values may be shown once. After the bases stand the sugars from the 5' end (letter, count) and the backbone: PS all phosphorothioate, else s phosphorothioate and o phosphodiester by linkage. Methylation of C is not given here. e = 2'-O-(2-methoxyethyl) (MOE); d = 2'-deoxy (DNA)

Biological target: DGAT2
Details: ASO

Row | Sequence | target mRNA inhibition (HepG2, 0.12 µM) [%] | target mRNA inhibition (HepG2, 2.5 µM) | target mRNA inhibition (HepG2, 10 µM) | target mRNA inhibition (HepG2, 20 µM) [%]
1 | ATCCTGGAGGCCAGTCCAGG (sugars e5 d10 e5, PS) | 18 | – | – | –
2 | ATGACCTTGGGTCAGAGGAA (sugars e5 d10 e5, PS) | – | 61% | 46% | –
3 | ATGAGCTCTCAAGTCTTCCT (sugars e5 d10 e5, PS) | – | 67% | 93% | –
4 | ATGCCAATGCCTAGGTCACA (sugars e5 d10 e5, PS) | – | 78% | 91% | –
5 | ATGCCTGAGGGCAGCAGTGT (sugars e5 d10 e5, PS) | 45 | – | – | –
6 | ATGGAGTGACAGGGCAGGAA (sugars e5 d10 e5, PS) | 59 | – | – | –
7 | ATGGTGTGTTGGCTCCCTGT (sugars e5 d10 e5, PS) | – | 53% | 53% | –
8 | ATTCATCTTTCCAGATCCGG (sugars e5 d10 e5, PS) | – | 92% | 88% | –
9 | CAAACAGATTAAAGTTGCTC (sugars e5 d10 e5, PS) | – | 78% and 72% | 90% and 91% | –
10 | CAAAGATATAGTTCCTGGTG (sugars e5 d10 e5, PS) | 61 | – | – | –
11 | CAACAGGCTCTGGTTCCATG (sugars e5 d10 e5, PS) | 56 | – | – | –
12 | CAAGGATGACCTTGGGTCAG (sugars e5 d10 e5, PS) | – | 18% | 44% | –
13 | CAAGGCTGAGTCTGTGCTGC (sugars e5 d10 e5, PS) | 24 | – | – | –
14 | CACAATGGGAATGGTATCGC (sugars e5 d10 e5, PS) | – | 59% | 91% | –
15 | CACACAGCCCAGTTTCGGAC (sugars e5 d10 e5, PS) | 24 | – | – | –
16 | CACAGTCATCTTGTGTACAT (sugars e5 d10 e5, PS) | – | 74% and 76% | 92% and 93% | –
17 | CACCAGGGCCTCCATGTACA (sugars e2 d13 e5, PS) | 69 | – | – | –
18 | CACCAGGGCCTCCATGTACA (sugars e5 d10 e5, PS) | – | 31% | 69% | 26
19 | CACCATAATCTGCACAGGTT (sugars e5 d10 e5, PS) | – | 86% and 94% | 88% and 93% | –
20 | CACCTGCTTGTACACTTCAT (sugars e5 d10 e5, PS) | – | 59% | 90% | –
21 | CACTAATTCTGGGCTTCCAG (sugars e5 d10 e5, PS) | – | 64% | 96% | –
22 | CACTGGAGCACTGAGATGAC (sugars e2 d13 e5, PS) | 61 | – | – | –
23 | CACTGGAGCACTGAGATGAC (sugars e3 d14 e3, PS) | 55 | – | – | –

Row | Sequence | target mRNA inhibition (HepG2, 0.12 µM) [%] | target mRNA inhibition (HepG2, 2.5 µM) | target mRNA inhibition (HepG2, 10 µM) | target mRNA inhibition (HepG2, 20 µM) [%]
24 | CACTTGATCTGGGACCCAAA (sugars e5 d10 e5, PS) | – | 41% | 92% | –
25 | CACTTGCTTGAGGTCAGGGT (sugars e5 d10 e5, PS) | – | 81% and 75% | 81% and 74% | –
26 | CAGATACCTCCAGACATCAG (sugars e5 d10 e5, PS) | 38 | – | – | –
27 | CAGCACTAATTTTTACAACT (sugars e5 d10 e5, PS) | – | 86% | 95% | –
28 | CAGCACTGACATGGTAAGTC (sugars e5 d10 e5, PS) | – | 79% and 69% | 92% and 97% | –
29 | CAGCAGGTTGTGTGTCTTCA (sugars e2 d13 e5, PS) | 57 | – | – | –
30 | CAGCTAATGATACAAGGTTG (sugars e5 d10 e5, PS) | 55 | – | – | –
31 | CAGCTGGATGGGAAAGTAGT (sugars e5 d10 e5, PS) | 21 | – | – | –
32 | CAGCTGTGATGACTTCCCAG (sugars e5 d10 e5, PS) | – | 49% | 81% | –
33 | CAGGACCCACTGGAGCACTG (sugars e2 d13 e5, PS) | 78 | – | – | –
34 | CAGGACCCACTGGAGCACTG (sugars e3 d14 e3, PS) | 71 | – | – | –
35 | CAGGCAGCCTGAAGGACACT (sugars e5 d10 e5, PS) | 49 | – | – | –
36 | CAGGCAGGTGTCAGAGGGCT (sugars e5 d10 e5, PS) | 21 | – | – | –
37 | CAGGCATGGAGCTCAGAGAC (sugars e5 d10 e5, PS) | 57 | – | – | –
38 | CAGGGTCCTCTCCGCTGCCT (sugars e5 d10 e5, PS) | – | 78% and 80% | 85% and 87% | –
39 | CAGGTAAGGCCGTATGCCTG (sugars e2 d13 e5, PS) | 59 | – | – | –
40 | CAGGTAAGGCCGTATGCCTG (sugars e3 d14 e3, PS) | 72 | – | – | –
41 | CAGTTTCGGACCCACTGTGA (sugars e2 d13 e5, PS) | 77 | – | – | –
42 | CATACTAGACTATGCAGCCT (sugars e5 d10 e5, PS) | – | 89% and 69% | 97% and 93% | –
43 | CATTGCCACTCCCATTCTTT (sugars e2 d13 e5, PS) | 40 | – | – | –
44 | CCAAGCAGGAGCTGGACAGA (sugars e5 d10 e5, PS) | 19 | – | – | –
45 | CCAATGCACCTTGTATTAAA (sugars e5 d10 e5, PS) | – | 72% | 92% | –
